The record followed here is publication PMC11943723, “Synthesis and Biological Activity of Glycosyl Thiazolyl Disulfides Based on Thiacarpine, an Analogue of the Cytotoxic Alkaloid Polycarpine from the Ascidian Polycarpa aurata” (Marine Drugs, 2025).

SMILES strings stand for the structures. Converted amounts (≈) assume the structure as drawn. Counter-ions that a name gives are not always drawn. Like-named read-outs stand apart in the source and are kept apart here.

Series [1] concerns HeLa (cervical cancer). In words: MTT cell viability assay, HeLa. Particulars: Homo sapiens, HeLa, 24 h, 24 h incubation, read-out: Cytotoxicity EC50, HeLa. The format is cell-based, human. An excerpt:
(§1) Human erythrocytes were purchased from the blood transfusion station Vladivostok. Human breast cancer cell lines MCF-7^HTB−22, and MDA-MB-231^CRM-HTB−26, liver hepatocellular carcinoma Hep G2^HB−8065, prostate adenocarcinoma PC-3^CRL−1435, cervical adenocarcinoma HeLa^CRM-CCL−2, and normal bronchial epithelial cells BEAS-2B ^CRL−3588 were received from ATCC (Manassas, VA, USA).
(§2) DMEM medium (Biolot, Russia) with 1% penicillin/streptomycin and 10% fetal bovine serum (FBS) (Biolot, Russia) was used for cultivation of Hep G2, PC-3, HeLa, and Beas-2b. MEM medium (Biolot, Russia) with 1% penicillin/streptomycin sulfate (Biolot, Russia) and FBS (Biolot, Russia) to a final concentration of 10% for MCF-7 and MDA-MB-231 cells.
(§3) The effect of the studied compounds on the viability of human cancer and normal cells was determined using the MTT (3-[4,5-dimethylthiazol-2-yl]-2,5 diphenyl tetrazolium bromide) assay. Briefly, 6 × 10^3 cells per well were seeded into 96-well plates and incubated for 24 h for adhesion, followed by incubation for 24 h with different concentrations of the substances. After incubation, the medium containing the test substances was replaced with 100 µL of fresh medium. Then, 10 μL of MTT (Sigma-Aldrich, Madison, WI, USA) reagent (5 mg/mL MTT in PBS) was added into the cells and the plates for additional 4 h. Thereafter, 100 µL of SDS-HCl solution (1 g SDS/10 mL dH2O/17 µL 6N HCl) was added to each well and incubated for 18 h. The absorbance of the converted formazan dye was measured using a Multiskan FC microplate photometer (Thermo Scientific, Waltham, MA, USA) at a wavelength of 570 nm. All experiments were performed in triplicate. Cytotoxic activity was expressed as a percentage of the cell viability.

Series [2] relates to Hep G2 (hepatocellular carcinoma). The experiment in a line: MTT cell viability assay, Hep G2. The format is cell-based. Particulars: Homo sapiens, HepG2, 24 h incubation, read-out: Cytotoxicity EC50, Hep G2.
Source text: as §1, §2, §3
(Tetrazolium dyes change colour on reduction, which living cells bring about.)

Series [3] deals with MDA-MB-231 (triple-negative breast cancer). In words: MTT cell viability assay, MDA-MB-231. The format is cell-based, human. Particulars: Homo sapiens, MDA-MB-231, 24 h, 24 h incubation, read-out: Cytotoxicity EC50, MDA-MB-231 (TNBC).
Source text: as §1, §2, §3

A short description of series [4]: MTT cell viability assay, BEAS-2B normal cells. It is filed as cell-based. The following applies: human, BEAS-2B normal bronchial epithelial cells, 24 h incubation, read-out: Cytotoxicity EC50, BEAS 2B.
Source text: as §1, §2, §3

Series [5] relates to Candida albicans (KMM 455). The experiment in a line: Antimicrobial activity, inhibition of microbial growth (optical density). It is filed as cell-based. The following applies: 18 h, OD 620 nm; for MIC50: read-out: Inhibition of Microbial Growth MIC50, C. albicans. The method, then: (§4) The antimicrobial activity of the compounds was determined against Gram-positive bacteria Staphylococcus aureus (ATCC 21027), Gram-negative bacteria Escherichia coli (VKPM B-7935), and yeast-like fungi Candida albicans (KMM 455) (all test strains were obtained from the Collection of Marine Microorganisms KMM PIBOC FEB RAS) in liquid nutrient media. Test cultures of S. aureus, E. coli, and C. albicans were grown in Petri dishes on a solid nutrient medium (Mueller–Hinton broth with the addition of agar—16.0 g/L) at 37 °C for 24 h. The antimicrobial activity of the compounds was determined by the change in optical density and expressed as the percentage of bacterial inhibition at different concentrations of substances added to the well of the microorganism suspension, compared to the control. The compounds were dissolved in dimethyl sulfoxide (DMSO) at a concentration of 10 mM and stored at −20 °C. Before the experiment, the solution of substances in DMSO was diluted with PBS at a concentration of 0.5–100.0 µM and added to the wells so that the concentration of DMSO in the culture medium was less than 1%. Antimicrobial activity was determined in 96-well microplates in a liquid Mueller–Hinton nutrient medium. For S. aureus, E. coli, and C. albicans, a bacterial suspension of 10^6 CFU in 1 mL of the media was used, 90 μL was added to each well of the microplates and then incubated in a thermostatted shaker at 37 °C for 18 h. Inhibition of microorganism growth was assessed by measuring the optical density at 620 nm using a microplate reader (Thermo Fisher Scientific, Waltham, MA, USA) after preliminary shaking of the plates for 10 min. All experiments were performed in triplicate. Gentamicin (S. aureus and E. coli) and nitrofungin (C. albicans) were used as positive controls, and 1% DMSO in PBS was used as a negative control.

Series [6] concerns Escherichia coli (VKPM B-7935). The series is described as above. It is filed as cell-based. Particulars: 18 h, OD 620 nm, read-out: Inhibition of Microbial Growth MIC50, E. coli. The method, then: as §4
Series [7] relates to Staphylococcus aureus (ATCC 21027). The description is as above. It is filed as cell-based. The following applies: 18 h, OD 620 nm, read-out: Inhibition of Microbial Growth MIC50, S. aureus. The method, then: as §4
In series [8] the test system is Escherichia coli (VKPM B-7935). In words: Inhibition of biofilm formation (MTT). The format is cell-based. The following applies: 24 h. How it is done:
(§5) Biofilm formation was performed according to the method described by Walencka et al., with minor modifications. The compounds were dissolved in dimethyl sulfoxide (DMSO) at a concentration of 10 mM and stored at −20 °C. Before the experiment, the solution of substances in DMSO was diluted with PBS at a concentration of 0.5–100.0 µM and added to the wells so that the concentration of DMSO in the culture medium was less than 1%. Biofilm formation was assessed in 96-well microplates in a liquid Mueller–Hinton nutrient medium. For S. aureus, E. coli, and C. albicans, a bacterial suspension of 10^6 CFU in 1 mL of medium was used, 90 μL was added to each well of the microplates and then incubated in a thermostatted shaker at 37 °C for 24 h. After incubation, the suspension of planktonic microorganisms was removed from the plate and washed with PBS. Next, 100 μL of PBS and 10 μL of MTT (3-(4,5-dimethylthiazol-2-yl)-2,5-diphenyltetrazolium bromide, MTT reagent, Sigma) stock solution (5 mg/mL) were added to the wells and incubated for 3 h at 37 °C. After incubation, all the solution was removed from the wells, 100 μL of DMSO was added, and the plate was shaken for 10 min until all formazan crystals had dissolved. The absorption was measured using a plate reader (Thermo Fisher Scientific, Waltham, MA, USA) at a wavelength of 570 nm. The activity of the substances was assessed by the change in optical density compared with that of the control. All experiments were performed in triplicate. Gentamicin (S. aureus and E. coli) and nitrofungin (C. albicans) were used as positive controls, and 1% DMSO in PBS was used as a negative control.

In series [9] the test system is HeLa cells. In words: Colony formation (clonogenic) assay. The format is cell-based. The following applies: Homo sapiens, 336 h, 14 days. The method, then: The effect of the test compounds on HeLa cell proliferation was analyzed using a clonogenic assay. Briefly, HeLa cells were cultured in 6-well plates at a density of 1 × 10^2 cells per well, and compounds were added at concentrations of 5 or 10 μM. Untreated culture medium was used as a control. […] Before fixation and staining, the medium was removed and the cells were washed twice with PBS. The colonies were then fixed with methanol for 25 min and stained with 0.5% crystal violet for 25 min at room temperature. The plates were then washed with water and air-dried.

The subject of series [10] is Human erythrocytes. In words: Hemolytic activity (destruction of erythrocyte membranes). The format is cell-based.
Source text: as §1

The subject of series [11] is Candida albicans (KMM 455). The experiment in a line: Inhibition of biofilm formation (MTT). The format is cell-based. Particulars: 24 h. The method, then: as §5
Where [12] appears, read: Staphylococcus aureus, ATCC21027.

As a reminder, the EC50 is the concentration that produces a half-maximal response. In general, MIC50 refers to an inhibitory concentration at the 50% level, which refers to growth in some studies and to a panel of isolates in others. In the case of `Cc1ccc(-c2nc(N)sc2SS[C@@H]2OC[C@@H](O)[C@H](O)[C@H]2O)cc1.Cl` [Compound 5j, 5-[(β-D-xylopyranosyl)disulfanyl]-2-amino-4-(p-tolyl)thiazole hydrochloride], the EC50 in [1], in [2] and in series [3] was greater than 25 µM throughout. Moreover, the EC50 at 24 h in series [4] was greater than 25 µM. In addition, the MIC50 in [5] (Candida albicans, KMM455) came out at 15.9 ± 1.1 µM; in series [6] (Escherichia coli), 38 ± 3 µM; in series [7] (setting [12]), 34.5 ± 3 µM. In addition, the “Inhibition of Biofilm Formation MIC50, E. coli” value (“Inhibition … E. coli” below) in series [8] was found to be 5.62 µM.

In general, inhibition refers to the change of the read-out against control, counted positive when it falls. As for `COc1ccc(-c2nc(N)sc2SS[C@@H]2OC[C@@H](OC(C)=O)[C@H](OC(C)=O)[C@H]2OC(C)=O)cc1` [Compound 4f, 5-[(2,3,4-Tri-O-acetyl-β-D-xylopyranosyl)disulfanyl]-2-amino-4-(4-methoxyphenyl)thiazole], the concentration for a half-maximal effect (EC50) was found to be 20.4 µM in series [1], 22.6 µM in series [2] and 22.9 µM in [3]. The EC50 at 24 h in series [4] came out at 23.5 µM. The inhibition at 5 µM in series [9] (5 µM, read-out: Colony growth inhibition) was roughly 16%. Besides, the inhibition at 10 µM in [9] (10 µM) stood at 78%. Besides, the MIC50 in series [5] (Candida albicans, KMM455) is 34.1 ± 2.1 µM (≈ 18 µg/mL); in series [6] (Escherichia coli), 39.5 ± 4 µM (≈ 20.9 µg/mL); in series [7] (setting [12]) it was 32.1 ± 3.7 µM (≈ 17 µg/mL).

As to `Nc1nc(-c2ccc(Cl)cc2)c(SS[C@@H]2O[C@H](CO)[C@@H](O)[C@H](O)[C@H]2O)s1` [Compound 5d, 5-[(β-D-glucopyranosyl)disulfanyl]-2-amino-4-(4-clorophenyl)thiazole hydrochloride], the half-maximal effective concentration (EC50) in series [1], in series [2] and in series [3] was greater than 25 µM each time. Besides, the EC50 at 24 h in series [4] is greater than 25 µM. Besides, the “Hemolytic activity, erythrocytes” value in series [10] was greater than 25 µM. Besides, the MIC50 in series [5] (Candida albicans, KMM455) was 3.1 ± 2.3 µM; in series [6] (Escherichia coli) it was 6.6 ± 0.5 µM; in [7] (setting [12]), 2.5 ± 0.2 µM. Also, the “Inhibition … E. coli” value in [8] amounted to 6.00 µM.

With `Cl.Nc1nc(-c2ccc(Br)cc2)c(SS[C@@H]2OC[C@@H](O)[C@H](O)[C@H]2O)s1` [Compound 5h, 5-[(β-D-xylopyranosyl)disulfanyl]-2-amino-4-(4-bromophenyl)thiazole hydrochloride], the EC50 in series [1], in series [2] and in [3] was greater than 25 µM throughout. Besides, the EC50 at 24 h in series [4] worked out at 23.5 µM. In series [10], the “Hemolytic activity, erythrocytes” value is greater than 25 µM. Besides, the MIC50 is 1.56 µM in [5]; 1.6 ± 0.1 µM in series [5] (Candida albicans, KMM455); 3.08 µM in [6]; 3.1 ± 0.3 µM in series [6] (Escherichia coli); 1.15 µM in series [7]; 1.2 ± 0.1 µM in [7] (setting [12]). Also, in [11], the “Inhibition of Biofilm Formation MIC50, C. albicans” value was 3.21 µM. Further, in series [8], the “Inhibition … E. coli” value amounted to 8.92 µM.

For the compound `CC(=O)OC[C@H]1O[C@@H](SSc2sc(N)nc2-c2ccc(Cl)cc2)[C@H](OC(C)=O)[C@@H](OC(C)=O)[C@@H]1OC(C)=O` [Compound 4d, 5-[(2,3,4,6-Tetra-O-acetyl-β-D-glucopyranosyl)disulfanyl]-2-amino-4-(4-chlorophenyl)thiazole], the concentration giving a half-maximal response (EC50) in series [1] was greater than 25 µM; in [2], greater than 25 µM; in series [3] it was 22.9 µM. Besides, the EC50 at 24 h in series [4] turned out to be 14.1 µM. Besides, the MIC50 worked out at 6.9 ± 0.9 µM (≈ 4.18 µg/mL) in [5] (Candida albicans, KMM455); 16.1 ± 1.7 µM (≈ 9.74 µg/mL) in [6] (Escherichia coli); 19.2 ± 2 µM (≈ 11.6 µg/mL) in [7] (setting [12]). Moreover, the “Inhibition of Biofilm Formation MIC50, C. albicans” value in series [11] worked out at 7.03 µM.

In the case of `Cl.Nc1nc(-c2ccc(Br)cc2)c(SS[C@@H]2O[C@H](CO)[C@@H](O)[C@H](O)[C@H]2O)s1` [Compound 5c, 5-[(β-D-glucopyranosyl)disulfanyl]-2-amino-4-(4-bromophenyl)thiazole hydrochloride], the EC50 in series [1], in [2] and in [3] was greater than 25 µM in each case. The EC50 at 24 h in series [4] is greater than 25 µM. In series [10], the “Hemolytic activity, erythrocytes” value was greater than 25 µM. Moreover, the MIC50 in series [5] (Candida albicans, KMM455) came to 1.6 ± 0.2 µM; in [6] (Escherichia coli), 5 ± 0.5 µM; in series [7] (setting [12]), 3 ± 0.2 µM. Further, in series [11], the “Inhibition of Biofilm Formation MIC50, C. albicans” value worked out at 8.69 µM.

With `O=[N+]([O-])c1ccc(O)c(Cl)c1` [Nitrofungin, reference compound], the “Inhibition of Microbial Growth MIC50, C. albicans” value in series [5] was found to be 4.1 ± 0.5 µM. Moreover, the “Inhibition of Biofilm Formation MIC50, C. albicans” value in [11] was determined as 4.3 ± 0.4 µM.
